Measurements: ChEMBL document CHEMBL4041501, “Isolation of Acacetin from Calea urticifolia with Inhibitory Properties against Human Monoamine Oxidase-A and -B” (J Nat Prod, 2016)

Tests used:
[1] = target: T1, Amine oxidase [flavin-containing] A (Homo sapiens, UniProt P21397); test: Inhibition of recombinant human MAO-A assessed as reduction in 4-hydroxyquinoline formation using kynuramine as substrate after 20 mins by fluorometric assay
T1 sequence (P21397 whole entry): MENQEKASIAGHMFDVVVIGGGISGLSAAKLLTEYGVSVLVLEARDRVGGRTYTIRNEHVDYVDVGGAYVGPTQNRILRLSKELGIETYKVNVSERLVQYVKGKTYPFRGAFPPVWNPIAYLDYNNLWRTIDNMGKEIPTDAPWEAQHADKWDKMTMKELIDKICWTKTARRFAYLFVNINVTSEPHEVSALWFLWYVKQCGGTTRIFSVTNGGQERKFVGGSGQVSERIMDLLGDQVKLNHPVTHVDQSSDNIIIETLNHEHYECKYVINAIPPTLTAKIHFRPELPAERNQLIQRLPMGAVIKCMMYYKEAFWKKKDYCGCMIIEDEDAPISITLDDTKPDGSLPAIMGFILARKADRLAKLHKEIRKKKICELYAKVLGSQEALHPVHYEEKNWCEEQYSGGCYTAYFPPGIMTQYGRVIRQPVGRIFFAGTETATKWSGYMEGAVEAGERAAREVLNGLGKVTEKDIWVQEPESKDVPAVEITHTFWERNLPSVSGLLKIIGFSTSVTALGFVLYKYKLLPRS

[2] = target: T1, Amine oxidase [flavin-containing] A; test: Competitive inhibition of recombinant human MAO-A assessed as reduction in 4-hydroxyquinoline formation using varying levels of kynuramine as substrate after 20 mins by Lineweaver-Burk plot analysis
[3] = target: T1, Amine oxidase [flavin-containing] A; test: Time-dependent inhibition of recombinant human MAO-A assessed as reduction in 4-hydroxyquinoline formation at 0.5 uM using kynuramine as substrate preincubated up to 15 mins followed by substrate addition by fluorometric assay
[4] = target: T2, Amine oxidase [flavin-containing] B (Homo sapiens, UniProt P27338); test: Time-dependent inhibition of recombinant human MAO-B assessed as reduction in 4-hydroxyquinoline formation at 0.2 uM using kynuramine as substrate preincubated up to 15 mins followed by substrate addition by fluorometric assay
T2 sequence (P27338 whole entry): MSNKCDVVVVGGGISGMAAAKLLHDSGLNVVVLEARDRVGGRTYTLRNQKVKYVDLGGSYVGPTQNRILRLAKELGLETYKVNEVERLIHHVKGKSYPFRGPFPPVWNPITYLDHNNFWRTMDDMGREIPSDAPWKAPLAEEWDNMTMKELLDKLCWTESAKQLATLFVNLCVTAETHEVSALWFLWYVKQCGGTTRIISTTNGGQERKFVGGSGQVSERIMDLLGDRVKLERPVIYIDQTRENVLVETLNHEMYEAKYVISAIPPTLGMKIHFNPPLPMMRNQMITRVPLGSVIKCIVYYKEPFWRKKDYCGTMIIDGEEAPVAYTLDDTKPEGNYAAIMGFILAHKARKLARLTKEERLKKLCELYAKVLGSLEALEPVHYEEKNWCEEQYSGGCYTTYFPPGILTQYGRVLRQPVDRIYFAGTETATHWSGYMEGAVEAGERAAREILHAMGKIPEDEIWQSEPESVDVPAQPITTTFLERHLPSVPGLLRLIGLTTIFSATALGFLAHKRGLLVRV

[5] = target: T1, Amine oxidase [flavin-containing] A; test: Inhibition of recombinant human MAO-A at 15 uM after 20 mins relative to control
[6] = target: T2, Amine oxidase [flavin-containing] B; test: Inhibition of recombinant human MAO-B at 5 uM after 20 mins relative to control
[7] = target: T1, Amine oxidase [flavin-containing] A; test: Reversible inhibition of recombinant human MAO-A assessed as recovery of enzyme activity at 15 uM preincubated for 20 mins followed by overnight dialysis relative to control; set-up: scale not given: the % may be the effect or the level left; details: read-out: Activity
[8] = target: T2, Amine oxidase [flavin-containing] B; test: Reversible inhibition of recombinant human MAO-B assessed as recovery of enzyme activity at 5 uM preincubated for 20 mins followed by overnight dialysis; set-up: scale not given: the % may be the effect or the level left
[9] = target: T1, Amine oxidase [flavin-containing] A; test: Inhibition of recombinant human MAO-A after 30 mins
[10] = target: T2, Amine oxidase [flavin-containing] B; test: Inhibition of recombinant human MAO-B after 30 mins

IC50 [1] [µM]	Ki [2] [µM]	TDI [3]	TDI [4]	inhibition at 15 µM [5] [%]	inhibition (INH) [6] [%]	activity at 15 µM [7] [%]	Activity [8] [%]	Compound	IC50 [9] [µM]	IC50 [10] [µM]
0.121	0.0592	Not Active	Not Active	> 95	90	> 90	90	COc1ccc(-c2cc(=O)c3c(O)cc(O)cc3o2)cc1 [ACACETIN]	–	–
–	–	–	–	–	–	–	–	O=C1C[C@@H](c2ccc(O)cc2)Oc2cc(O)cc(O)c21 [NARINGENIN]	955	288
